One data set has as its system P1 transporter. The class given is cell-based, Trypanosoma brucei. The protocol: Non-specific association of radiolabel with the cell pellet was determined using an identical incubation in the presence of saturating (1 mM) unlabelled adenosine.
The nature of data set [1]: Cytotoxicity on MRC-5 fibroblasts (resazurin). The following applies: human. The class given is cell-based, human. The protocol:
Cytotoxicity assays were performed on MRC-5SV2 (Sigma-Aldrich/ECACC, catalogue number 84100401) human embryonic lung fibroblasts, which were cultured in minimum essential medium with Earle’s salt medium, supplemented with L-glutamine, NaHCO3 and 5% inactivated foetal calf serum. All cultures and assays were conducted at 37 °C with 5% CO2. Ten microliters of the aqueous compound dilutions were added to 190 µL of MRC-5SV2 (3 × 10^4 cells mL^−1). Cell growth was compared to untreated control wells (100% cell growth) and medium control wells (0% cell growth). After a 3-day incubation, cell viability was assessed fluorimetrically after the addition of 50 μL resazurin per well (final concentration of 10 µg mL^−1). After 4 h at 37 °C, fluorescence was measured (λex 550 nm, λem 590 nm). The results were expressed as percentage reduction in cell growth/viability compared to control wells and an EC50 was determined.
(In general: Resazurin is reduced to fluorescent resorufin, in cell work by metabolically active cells.)

Data set [2] concerns T. b. rhodesiense STIB-900. Nature of the data set: microbe, parasite or virus in culture. The class given is cell-based, Trypanosoma brucei rhodesiense. The following applies: for SI (MRC/T.b. rhodesiense): selectivity index. As to the method: Drug susceptibility tests with Lister 427WT, TbAT1-KO[48], B48[26] and ISMR1[27] were performed using an assay based on the viability indicator dye resazurin in 96-well plates, each well containing 2 × 10^4 cells. The plates were incubated for 48 h with a doubling dilution series of the test compounds in HMI-9/fetal bovine serum at 37 °C/5% CO2 (23 dilutions starting at 100 µM, except for the pentamidine control (50 µM)), after which resazurin (20 µL of 125 µg mL^−1 resazurin sodium salt solution was added to each well (containing 200 µL of cells and test compound)) was added to each well and the plates incubated for another 24 h. Fluorescence was determined using a FLUOstar Optima (BMG Labtech, Durham, NC) and the results fitted to a sigmoid curve with variable slope using Prism 5.0 or Prism 7.04 (GraphPad, San Diego, CA).
Susceptibility assays with T. brucei Squib 427[49] or T. b. rhodesiense STIB-900[50] were performed under similar conditions as above, but using 10 concentrations of a 4-fold compound dilution series starting at 64 µM. Trypanosoma brucei Squib 427 was seeded at 1.5 × 10^4 parasites/well and T. b. rhodesiense at 4 × 10^3 parasites per well, followed by the addition of resazurin (final concentration of 10 µg mL^−1) after 24 h (T. brucei) or 6 h (T. b. rhodesiense).

Data set [3] deals with B48: pentamidine, diminazene and melaminophenyl arsenical resistant T. brucei line. Description: microbe, parasite or virus in culture. In kind it is cell-based, Trypanosoma brucei brucei. The following applies: for RF (B48): resistance factor vs Lister 427WT.
Data set [4] concerns T. brucei s427 wildtype cells. Description: Microscopy of trypanosome cell morphology (DAPI). Particulars: 2× and 5× EC50; 6 h and especially 12 h. The class given is cell-based, Trypanosoma brucei. As to the method: Growth assays of T. brucei
To test the effect of the novel adenosine analogues on the growth of T. brucei BSF, s427 wildtype cells were seeded at 1×10^5 cells mL-1 in 5 mL of HMI-9 medium with 10% FBS and treated with compounds […]
cells were also incubated in drug-free medium under the same conditions. 2 μM of 2’-deoxycoformycin were added to all cultures to avoid any potential effect of serum adenosine deaminase on the activity of test compounds and cordycepin.1
Cells were manually counted in Neubauer chambers at 0, 2, 4, 6, 8, 12, 24, 36 and 48 h after addition of the drugs. At 6 and 12 h, cells were also collected and fixed to have their structure checked by […]
Wash-out experiments with T. brucei
A culture of bloodstream form T. brucei 427WT, at mid-log phase of growth, was harvested and resuspended at a density of 10^5 cells mL-1, in fresh medium containing either no test compound, or […]
The cultures were incubated under standard conditions (37 °C/5% CO2) and cell counts were performed manually using a haemocytometer under phase contrast microscopy, every 24 h. The culture in continuous presence of analogue 9 was split in two at 8 h and 48 h (as indicated with arrows in Supplementary Figure S2). The split cultures were centrifuged and resuspended in the same volume of either fresh medium without test compound or fresh medium with the same concentration of compound 9 as before, reincubated. The detection limit for the manual cell count was 10^4 cells mL-1.
After 6 and 12 h after addition of drugs, approximately 2×10^6 cells were harvested from each group and applied to glass slides pre-treated with poly-L-lysine, left to settle for 5 min and fixed with 4% formaldehyde for 4 min. The formaldehyde was neutralised by addition of 100 mM glycine (20 min).
Cells were washed once with PBS and blocked for 1 h with 1% BSA/0.2% Tween-20 in PBS. Cells were […]
A coverslip was then placed on top of the wells and sealed with nail varnish.
Metabolic stability of nucleoside analogue 9 […]
and B (Corning) were kept at -20°C. The test compound and the reference compounds diclofenac (MW […]

In data set [5] the test system is TbAT1-KO: T. brucei cell line lacking the TbAT1(P2) transporter gene. Description: microbe, parasite or virus in culture. In kind it is cell-based, Trypanosoma brucei brucei. Particulars: for RF (TbAT1-KO): resistance factor: ratio of EC50 of resistant and Lister 427WT. Put shortly:
(§1)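 Trypanosomes (2 × 10^4 cells/well) exposed 48 h at 37 °C/5% CO2 in HMI-9/FBS to 23-step doubling dilutions from 100 µM, then resazurin added for a further 24 h. Fluorescence fitted to a variable-slope sigmoid curve.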

Data set [6] concerns ISMR1: isometamidium-resistant T. brucei cell line. Nature of the data set: microbe, parasite or virus in culture. The class given is cell-based, Trypanosoma brucei brucei. Particulars: for RF (ISMR1): resistance factor vs Lister 427WT. Put shortly:
as §1

The test system of data set [7] is T. b. brucei Lister 427WT. Description: Drug susceptibility test (resazurin), Lister 427WT. In kind it is cell-based, Trypanosoma brucei brucei. Put shortly: as §1
Where [8] appears, read: inhibition of [3H]adenosine uptake, mean ± SEM, n = 3, read-out: P1 transporter Ki.
[9] abbreviates: source data, read-out: P1 transporter Ki, AVG.
The mark [10] stands for this setting: MRC-5SV2 human embryonic lung fibroblasts, cytotoxicity in human MRC-5 fibroblasts, mean and SEM, read-out: MRC-5 EC50.
Where [11] appears, read: Trypanosoma brucei, RHODESIENSE, Alamar blue cell viability assay, mean and SEM, read-out: T. b. rhodesiense EC50.
Setting [12] is: Trypanosoma brucei, RHODESIENSE, source data, read-out: T. brucei rhodesiense EC50, Average.
Setting [13] is: source data, read-out: T. brucei rhodesiense EC50, single measurements.
Setting [14] is: Trypanosoma brucei, mean and SEM, n = 3, read-out: B48 EC50.
The mark [15] stands for this setting: Trypanosoma brucei, read-out: TbAT1-KO EC50, AVG, source data.
[16] abbreviates: Trypanosoma brucei, read-out: TbAT1-KO EC50, mean and SEM, n = 3.
Setting [17] is: read-out: TbAT1-KO EC50, single determinations, source data.
The mark [18] stands for this setting: Trypanosoma brucei, mean and SEM, n = 3, read-out: ISMR1 EC50.
[19] abbreviates: Trypanosoma brucei, source data, read-out: ISMR1 EC50, AVG.
The mark [20] stands for this setting: Trypanosoma brucei, mean and SEM, n = 3, read-out: Lister 427 EC50.
Where [21] appears, read: Trypanosoma brucei, source data, read-out: s427 EC50, AVG.
[22] abbreviates: Trypanosoma brucei, RHODESIENSE, source data, read-out: T. brucei rhodesiense EC50, single measurements.
[23] abbreviates: Trypanosoma brucei, read-out: TbAT1-KO EC50, single determinations, source data.
Setting [24] is: Trypanosoma brucei, source data, read-out: ISMR1 EC50, single determinations.
The mark [25] stands for this setting: source data, read-out: ISMR1 EC50, single determinations.
Where [26] appears, read: Trypanosoma brucei, source data, read-out: s427 EC50, single determinations.
Where [27] appears, read: source data, read-out: s427 EC50, single determinations.

Values joined by “and” are separate entries in the source; they are usually repeats but may differ in a detail not shown here. Equal values may be shown once. Read-outs that look alike come from different tables or passages of the source. Marks after values point to notes of the source that are not given here. Bounds are passed on as bounds.

`Nc1ncnc2c1c(Br)cn2[C@@H]1O[C@H](CO)C[C@H]1O` [Compound 10, 3’-deoxy-7-Br-tubercidin]: the “fold improvement of affinity for P1” value in the data set with P1 transporter (10 versus 9 (bromine at 7-position)) was 10 fold. For the same molecule, the Ki on P1 transporter (Cheng–Prusoff from IC50, read-out: P1 transporter Ki, single experiments) was 13400 nM and 8500 nM and 8400 nM; at P1 transporter (setting [8]), 9470 ± 1400 nM; on P1 transporter (setting [9]), 10100 nM. Moreover, the EC50 at 3 day in data set [1] (setting [10]) is 15000 ± 3000 nM. The EC50 amounted to 0.4 ± 0.09 nM in data set [2] (setting [11]); 0.398 nM in data set [2] (setting [12]); 0.5 nM in data set [2] (setting [13]); 1.3 ± 0.3 nM in data set [3] (setting [14]); 1.32 nM in data set [3] (Trypanosoma brucei, source data, read-out: B48 EC50, AVG); 2.12 nM in data set [5] (setting [15]). Also, the half-maximal effective concentration (EC50) stood at 2.1 ± 0.25 nM in data set [5] (setting [16]); 1.94 nM in data set [5] (setting [17]); 1.1 ± 0.2 nM in data set [6] (setting [18]); 1.11 nM in data set [6] (setting [19]); 1.8 ± 0.3 nM in data set [7] (setting [20]); 1.76 nM in data set [7] (setting [21]). In addition, the “SI (MRC/T.b. rhodesiense)” value in data set [2] is 37,500. Moreover, the “RF (B48)” value in data set [3] turned out to be 0.75. The cell morphology result in data set [4] is given as “clear aberrant morphology”. Besides, the “RF (TbAT1-KO)” value in data set [5] was 1.2. Moreover, the “RF (ISMR1)” value in data set [6] is recorded as 0.63.
Regarding `Nc1ncnc2c1c(Br)cn2[C@@H]1O[C@H](CO)[C@@H](O)[C@H]1O` [Compound 8, 7-bromotubercidin], at P1 transporter (setting [9]), the Ki came out at 7100 nM. For the same molecule, the EC50 at 3 day in data set [1] (MRC-5 EC50, Average) turned out to be 12800 nM; in data set [1] (MRC-5 EC50, single measurements), 8180 nM. The EC50 stood at 120 ± 20 nM in data set [2] (setting [11]); 120 nM in data set [2] (setting [12]); 106 nM in data set [2] (setting [22]); 136 nM in data set [2] (setting [13]); 448 ± 196 nM in data set [3] (setting [14]); 825 ± 17.3 nM in data set [5] (setting [16]). In addition, the EC50 is 820 nM in data set [5] (setting [23]); 858 nM and 798 nM in data set [5] (setting [17]); 1530 ± 157 nM in data set [6] (setting [18]); 1530 nM in data set [6] (setting [19]); 1390 nM in data set [6] (setting [24]); 1100 nM and 2070 nM and 1520 nM in data set [6] (setting [25]). For the same molecule, the EC50 in data set [7] (Trypanosoma brucei, read-out: Lister 427 EC50, mean and SEM, n = 3) is 320 ± 270 nM; in data set [7] (setting [21]) it was 315 nM; in data set [7] (setting [26]) it was 364 nM; in data set [7] (setting [27]), 309 nM and 273 nM. Also, the “SI (MRC/T.b. rhodesiense)” value in data set [2] is reported as 107. For the same molecule, the “RF (B48)” value in data set [3] is 1.42. Further, the cell morphology result in data set [4] is recorded as “clear aberrant morphology”. Besides, the “RF (TbAT1-KO)” value in data set [5] is 2.62***. In data set [6], the “RF (ISMR1)” value is reported as 4.85**.
Regarding `Nc1ncnc2c1ccn2[C@@H]1O[C@H](CO)C[C@H]1O` [Compound 9, 3’-deoxytubercidin], the Ki on P1 transporter (setting [8]) is 99900 ± 21700 nM; on P1 transporter (setting [9]), 108000 nM. Besides, the EC50 at 3 day in data set [1] (setting [10]) was > 64000 nM; in data set [1] (MRC-5SV2 human embryonic lung fibroblasts, source data, read-out: MRC-5 EC50, single measurements), > 64000 nM. Besides, the EC50 in data set [2] (setting [11]) came out at 0.52 ± 0.04 nM; in data set [2] (setting [12]), 0.521 nM; in data set [2] (setting [22]) it was 0.484 nM; in data set [2] (setting [13]), 0.557 nM; in data set [3] (setting [14]) it was 368 ± 13 nM; in data set [3] (Trypanosoma brucei, source data, read-out: B48 EC50, single determinations) it was 378 nM. The EC50 is 383 nM and 343 nM in data set [3] (source data, read-out: B48 EC50, single determinations); 374 nM in data set [5] (setting [15]); 375 ± 12 nM in data set [5] (setting [16]); 370 nM in data set [5] (setting [23]); 397 nM and 357 nM in data set [5] (setting [17]); 32.4 ± 3.8 nM in data set [6] (setting [18]). In addition, the EC50 in data set [6] (setting [24]) is 39.2 nM; in data set [6] (setting [25]) it was 32 nM and 26 nM; in data set [7] (setting [20]), 33 ± 1 nM; in data set [7] (setting [21]), 33.3 nM; in data set [7] (setting [26]) it was 32 nM; in data set [7] (setting [27]) it was 35.5 nM and 32.4 nM. Besides, in data set [2], the “SI (MRC/T.b. rhodesiense)” value was >123,077. For the same molecule, the cell morphology entry in data set [4] was “clear aberrant morphology”. For the same molecule, in data set [6], the “RF (ISMR1)” value is given as 0.97.

For orientation: Ki means a dissociation constant, usually derived from enzyme kinetics or from competition with a known ligand. The EC50 is the concentration at which the effect is half-maximal.

The values are drawn from PMC6895180 (Nature Communications, 2019).
